Test systems include DU-145 prostate; 786-0 renal; SN12C renal; MCF7 breast; SNB-19 CNS; SK-MEL-5 melanoma; SF-539 CNS; IGROV1 ovarian; SK-OV-3 ovarian; SF-268 CNS.
Holding throughout (assay): growth of human tumour cells (NCI), 48 h

From PubChem BioAssay (NCI) come the findings set out here.

Each structure is given as a SMILES string. Values joined by “and” are separate entries in the source; they are usually repeats but may differ in a detail not shown here. Equal entries are not always repeated.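 1) Cells in 96-well plates. 2) Compound, 48 h, 5 concentrations. 3) Linear interpolation between surrounding doses. 4) Unreached endpoint = highest concentration. GI50 = concentration required for 50% inhibition of growth. At the TGI there is no net growth.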

On to `C=C1C(=O)O[C@@H]2C[C@@]3(C)CCC[C@H](C)C3=C[C@H]12`, for which the TGI in the test on DU-145 prostate turned out to be 24.3 µM; with 786-0 renal, 12.7 µM; in the test on SN12C renal, 12.5 µM; in the test on MCF7 breast it was 17.2 µM; in the test on SNB-19 CNS it was 30.1 µM; in the test on SK-MEL-5 melanoma, 17.9 µM. In addition, the TGI with SF-539 CNS was found to be 22.5 µM; with IGROV1 ovarian it was 29.6 µM; in the test on SK-OV-3 ovarian, 40.4 µM; with SF-268 CNS, 26.7 µM.

With `O=C(CN1CCN(c2ncnc3ccccc23)CC1)Nc1ccc(Cl)cc1C(=O)c1ccccc1Cl`, the GI50 with DU-145 prostate is 0.368 µM; in the test on 786-0 renal, 0.356 µM; in the test on SN12C renal, 0.943 µM; with MCF7 breast, 0.636 µM; with SNB-19 CNS it was 1.71 µM; in the test with SK-MEL-5 melanoma it was 0.5 µM. Also, the GI50 with SF-539 CNS was 0.383 µM; with IGROV1 ovarian, 1.7 µM; in the test with SK-OV-3 ovarian it was 3.5 µM; with SF-268 CNS it was 0.686 µM. Also, the TGI in the test with DU-145 prostate came to 12 µM; in the test on 786-0 renal, 12.3 µM; with MCF7 breast, 13.1 µM; with SNB-19 CNS, 12.2 µM; in the test on SK-MEL-5 melanoma it was 2.7 µM; in the test on SF-539 CNS, 1.3 µM. Moreover, the TGI in the test on IGROV1 ovarian came out at 14.4 µM; in the test with SK-OV-3 ovarian, 36.6 µM; in the test with SF-268 CNS, 13 µM.

Consider `O=C1NN(c2ccc(C(=O)O)cc2)C(=O)/C1=C\c1ccc([N+](=O)[O-])o1`, for which the GI50 is 85.6 µM with DU-145 prostate; over 100 µM in the test on 786-0 renal; 58.8 µM in the test on SN12C renal; 22.4 µM in the test on MCF7 breast; over 100 µM in the test with SNB-19 CNS; over 100 µM with SK-MEL-5 melanoma. In addition, the GI50 in the test with SF-539 CNS was over 100 µM; in the test on IGROV1 ovarian, 20.5 µM; with SK-OV-3 ovarian, over 100 µM; in the test on SF-268 CNS it was 61.2 µM. Also, the TGI is over 100 µM with DU-145 prostate; over 100 µM in the test with 786-0 renal; over 100 µM in the test on SN12C renal; 50.5 µM with MCF7 breast; over 100 µM in the test on SNB-19 CNS; over 100 µM in the test with SK-MEL-5 melanoma. The TGI with SF-539 CNS was over 100 µM; with IGROV1 ovarian, 52.6 µM; with SK-OV-3 ovarian, over 100 µM; in the test on SF-268 CNS it was over 100 µM.

Consider `Cc1nn(-c2nc3ccccc3s2)c(C)c1Oc1ccccc1O`, for which the GI50 in the test with DU-145 prostate was 7.17 µM; in the test on 786-0 renal it was 14.6 µM; in the test on SN12C renal, 6.92 µM; in the test on MCF7 breast it was 4.19 µM; with SNB-19 CNS, 6.77 µM; in the test on SK-MEL-5 melanoma, 1.3 µM. Moreover, the GI50 was 2.52 µM in the test with SF-539 CNS, 12.6 µM in the test with IGROV1 ovarian, 7.57 µM with SK-OV-3 ovarian and 5.31 µM in the test on SF-268 CNS. Besides, the TGI with DU-145 prostate worked out at 20.1 µM; with 786-0 renal, 27.7 µM; in the test on SN12C renal, 22 µM; in the test with MCF7 breast, 24.6 µM; in the test with SNB-19 CNS, 20.3 µM; in the test on SK-MEL-5 melanoma it was 15.3 µM. For the same molecule, the TGI turned out to be 20.1 µM with SF-539 CNS, 35.8 µM in the test with IGROV1 ovarian, 24.8 µM in the test on SK-OV-3 ovarian and 20.8 µM in the test on SF-268 CNS.

Consider `CCC(C)(C)C(=O)O[C@H]1C[C@@H](C)C=C2C=C[C@H](C)[C@H](CC[C@@H]3C[C@@H](O)CC(=O)O3)[C@H]21`, for which the GI50 in the test with DU-145 prostate is 12.1 µM; in the test on 786-0 renal, 3.13 µM; in the test on SN12C renal, 0.949 µM; with MCF7 breast, 12.2 µM; with SNB-19 CNS it was 3.13 µM; in the test with SK-MEL-5 melanoma, 2.23 µM. Besides, the GI50 was 11.3 µM in the test with SF-539 CNS, 2.08 µM with IGROV1 ovarian, 7.56 µM in the test with SK-OV-3 ovarian and 0.715 µM in the test with SF-268 CNS. Moreover, the TGI in the test on DU-145 prostate is 24.6 µM; with 786-0 renal, 11.2 µM and > 30 µM; in the test with SN12C renal, 16.5 µM and > 30 µM; with MCF7 breast, 26.7 µM; with SNB-19 CNS it was 19.9 µM; with SK-MEL-5 melanoma it was 7.87 µM. The TGI in the test with SF-539 CNS was 24.8 µM and > 30 µM; in the test on IGROV1 ovarian, 13.2 µM and 4.5 µM; in the test with SK-OV-3 ovarian, 21 µM and > 30 µM; in the test on SF-268 CNS, 15.4 µM.

Consider `Oc1ccc2cc(Br)ccc2c1-c1c(O)ccc2cc(Br)ccc12`, for which the GI50 in the test on DU-145 prostate was 3.29 µM; with 786-0 renal, 2.38 µM; in the test on SN12C renal it was 2.04 µM; in the test with MCF7 breast, 2.49 µM; in the test on SNB-19 CNS it was 3.92 µM; in the test on SK-MEL-5 melanoma, 1.87 µM. Moreover, the GI50 was 3.34 µM with SF-539 CNS, 2.06 µM in the test on IGROV1 ovarian, 4.72 µM in the test on SK-OV-3 ovarian and 3.27 µM with SF-268 CNS. Besides, the TGI came to 9.34 µM in the test on DU-145 prostate; 4.64 µM in the test on 786-0 renal; 4.81 µM in the test with SN12C renal; 6.76 µM with MCF7 breast; 15.9 µM in the test with SNB-19 CNS; 3.74 µM in the test with SK-MEL-5 melanoma. Also, the TGI was 12 µM with SF-539 CNS, 11.8 µM in the test with IGROV1 ovarian, 17.3 µM in the test on SK-OV-3 ovarian and 13.2 µM in the test on SF-268 CNS.

On to `COc1ccccc1OCC(=O)Nc1sc2c(c1C(N)=O)CCC2`, for which the GI50 with DU-145 prostate was over 100 µM; in the test on 786-0 renal, over 100 µM; with SN12C renal it was over 100 µM; with MCF7 breast, over 100 µM; in the test on SNB-19 CNS, over 100 µM; in the test on SK-MEL-5 melanoma, 70.6 µM. Besides, the GI50 in the test with SF-539 CNS, with IGROV1 ovarian, in the test with SK-OV-3 ovarian and in the test on SF-268 CNS was over 100 µM throughout. The TGI in the test on DU-145 prostate, in the test on 786-0 renal, with SN12C renal, in the test with MCF7 breast, with SNB-19 CNS and in the test on SK-MEL-5 melanoma was over 100 µM each time. Further, the TGI in the test with SF-539 CNS, with IGROV1 ovarian, in the test with SK-OV-3 ovarian and with SF-268 CNS was over 100 µM throughout.

For `COc1ccc(CCN2C(=O)C=CC2=O)cc1OC`, the TGI with DU-145 prostate is 31 µM; in the test with 786-0 renal, 8.15 µM; with SN12C renal, 32.5 µM; in the test on MCF7 breast, 39.7 µM; with SNB-19 CNS it was 37.2 µM; in the test with SK-MEL-5 melanoma it was 31.5 µM. Further, the TGI is 31.3 µM in the test with SF-539 CNS, 36.7 µM in the test with IGROV1 ovarian, 33 µM in the test on SK-OV-3 ovarian and 54.4 µM in the test with SF-268 CNS.

In the case of `CC1=NN(c2ccccc2)C(=O)C1N=Nc1ccc([As](=O)(O)O)c(O)c1` (centres undefined), the TGI in the test on DU-145 prostate, in the test with 786-0 renal, with SN12C renal, with MCF7 breast, with SNB-19 CNS and in the test on SK-MEL-5 melanoma was over 100 µM each time. Also, the TGI with SF-539 CNS, in the test on IGROV1 ovarian, in the test with SK-OV-3 ovarian and with SF-268 CNS was over 100 µM in each case.
